# Values of other authors as cited in US8535946B2, “Biomarker to measure drug efficacy in enteropathic disease” (The Board of Trustees of the Leland Stanford Junior …, priority 2007, dated 2013).
# Details: humans
smiles,measurement,value
Cc1ncc2n1-c1ccc(Cl)cc1C(c1ccccc1F)=NC2 [midazolam],dose excreted unchanged in the urine,less than 1%
